According to patent US20260248812A1, “METHODS OF TREATING CONGENITAL ADRENAL HYPERPLASIA” (Spruce Biosciences, Inc., priority 2019, published 2026):

Columns and labels:
adults with classic CAH = assay: Phase 2 clinical study of Compound 3 with glucocorticoid: time matched change of serial hormone profiles (ACTH, 17-OHP, A4); format: in vivo, human; conditions: non-dexamethasone subjects; for A4 level profile, time matched change from baseline: 6 am to 8 am
Protocol: Study Compound 3, a Phase 2, open-label, first-in-CAH-patients, proof-of-concept, dose ranging study, evaluated the safety and efficacy of repeated doses of SPR001 in adults with classic CAH. The population (n=24; with 2 subjects completing 2 cohorts) consisted of subjects with classic CAH that is not adequately controlled despite a stable glucocorticoid regimen based on the assessment of a single hormone at study screening, 17-OHP>800 ng/dl, which is 4 times the upper limit of a normal reference range of 17-OHP level. 17-OHP was chosen as the hormone as an inclusion criterion, as at the time, it represented the state-of-art in CAH for assessment of disease severity and adequacy of glucocorticoid therapy. The study comprised 3 cohorts, Cohort A was a 6-week intra-subject dose escalation treatment period with three 2-week treatment periods of 200 mg […] (QD) (only daily), 600 mg QD and 1000 mg QD without washout between treatment periods. Cohorts B and C consisted of 2-week treatment periods of either 100 bis in die (BID) (twice daily) (Cohort C) or 200 mg BID (Cohort B). At baseline, the following hormones were assessed, 17-OHP, ACTH and A4. The same hormones were assessed at the end of each 2-week treatment period.
A clinical study is conducted involving up to 52 weeks treatment of Compound 3 with concurrent daily glucocorticoid therapy for the treatment of adults with classic CAH. After screening using A4 and ACTH level criteria, eligible patients are enrolled into up to 12 weeks of placebo-controlled treatment followed by 40 weeks of open label treatment and a 4-week washout/safety follow-up period.
(§1) As part of the study, pre and pose concentrations of DEX and cortisol were measured. In some embodiments, the biomarker reduction analysis comprises all subjects.
(§2) A pooled baseline (dotted) and 2 lines (solid) representing two dose groups (doses=200 mg and doses >200 mg) using the percentage change from dose group baseline presented as percentage change from the pooled baseline. The figures are divided by disease control group, poor disease control with highly elevated ACTH and A4 and the good disease control group with ACTH and A4 that is near normal or below normal ranges. Each group has elevated 17-OHP.
as §2, with “In both groups, 17-OHP is elevated above its target (1200 ng/dL). The Y-axis is different with the poor disease control” for “Each”, “exceeding 8000 ng/dL in FIG. 3A and the good disease group was near an upper bound of approximately 3000 ng/dL in FIG. 3B.” for “has elevated 17-OHP.”

CYP3A4 pathway = CYP3A4 pathway (Homo sapiens, UniProt P08684); assay: CYP3A4 pathway inhibition (statement); format: in vitro ADME; conditions: dexamethasone is primarily metabolized through the CYP3A4 pathway
Chain of CYP3A4 pathway (P08684 whole entry): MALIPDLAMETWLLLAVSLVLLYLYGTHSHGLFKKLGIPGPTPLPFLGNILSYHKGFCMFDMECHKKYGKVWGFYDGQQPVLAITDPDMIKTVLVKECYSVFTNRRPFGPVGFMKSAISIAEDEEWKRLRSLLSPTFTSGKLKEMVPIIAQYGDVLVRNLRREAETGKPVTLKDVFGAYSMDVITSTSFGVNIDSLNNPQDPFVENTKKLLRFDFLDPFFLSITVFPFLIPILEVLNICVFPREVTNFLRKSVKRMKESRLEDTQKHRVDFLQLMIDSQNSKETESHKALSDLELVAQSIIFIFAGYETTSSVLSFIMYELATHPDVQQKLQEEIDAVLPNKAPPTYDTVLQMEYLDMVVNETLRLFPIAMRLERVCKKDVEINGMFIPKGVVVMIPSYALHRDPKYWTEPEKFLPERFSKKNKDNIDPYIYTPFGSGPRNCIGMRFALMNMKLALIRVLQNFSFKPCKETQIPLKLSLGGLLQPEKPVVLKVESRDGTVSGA
Protocol: as §1

inhibition of the CYP3A4 pathway (CYP3A4 pathway): inhibitor of the CYP3A4 pathway
SMILES: CCC(CC)c1cc(C)nc2c(-c3sc(N4CCOCC4)nc3Cl)c(C)nn12 [Compound 3, 4-(4-chloro-5-(2,5-dimethyl-7-(pentan-3-yl)pyrazolo[1,5-a]pyrimidin-3-yl)thiazol-2-yl)morpholine]
17-OHP level, serial hormone profile, time matched change from baseline (adults with classic CAH; both poor and good disease control groups, 10 pm to 8 am, FIGS. 3A and 3B): reduced the magnitude of the increase in 17-OHP post 3 am | ACTH level, serial hormone profile, time matched change from baseline (adults with classic CAH; good disease control group (ACTH and A4 near or below normal), 10 pm to 8 am, FIG. 2B): generally maintained the serial profile below the ULN | A4 level profile, time matched change from baseline (adults with classic CAH; good disease control group, FIG. 4B): further reduce A4 level compared to the baseline level | ACTH level, serial hormone profile, time matched change from baseline (adults with classic CAH; poor disease control group (highly elevated ACTH and A4), 10 pm to 8 am, doses =200 mg and >200 mg, FIG. 2A): reduced the magnitude of the increase in ACTH post 3 am | A4 level profile, time matched change from baseline (adults with classic CAH; poor disease control group, blended gender based ULN approximately 212 ng/dL, FIG. 4A): improves the A4 profile in subjects toward the blended gender based ULN
